Where two headings read alike, the source gives them in different places.
Tested on: single-round infectious reporter virus with HIV-1 LAI envelope
Experiment: Single-round infectious HIV-1 LAI luciferase reporter virus infection of MT2 cells
Format: cell-based
Settings: Human immunodeficiency virus 1, MT2, 72 h
Description: • Virus production—Human embryonic Kidney cell line, 293T (HEK 293T), was propagated in Dulbecco's Modified Eagle Medium (Invitrogen, Carlsbad, Calif.) containing 10% fetal Bovine serum (FBS, Sigma, St. Louis, Mo.). The human T-cell leukemia cell MT2 (AIDS Research and Reference Reagent Program, Cat. 237) was propagated in RPMI 1640 (Invitrogen, Carlsbad, Calif.) containing 10% fetal bovine serum (FBS, Hyclone, Logan, Utah) • Virus infection—Single-round infectious reporter virus was produced by co-transfecting HEK 293T cells with plasmide expressing the HIV-1 LAI envelope along with a plasmid containing an HIV-1 LAI proviral cDNA with the envelope gene replaced by a firefly luciferase reporter gene (Chen et al, Ref 41). Transfections were performed using lipofectAMINE PLUS reagent as described by the manufacturer (Invitrogen, Carlsbad, Calif.).
• 1. MT2 cells were plated in black, 384 well plates at a cell density of 5×10^3 cells per well in 25 μl RPMI 1640 containing 10% FBS. • 2. Compound (diluted in dimethylsulfoxide and growth medium) was added to cells at 12.5 μl/well, so that the final assay concentration would be ≦50 nM. • 3. 12.5 μl of single-round infectious reporter virus in Dulbecco's Modified Eagle Medium was added to the plated cells and compound at an approximate multiplicity of infection (MOI) of 0.01, resulting in a final volume of 50 μl per well. • 4. Virus-infected cells were incubated at 37 degrees Celsius, in a CO2 incubator, and harvested 72 h after infection. • 5. Viral infection was monitored by measuring luciferase expression in the infected cells using a luciferase reporter gene assay kit (Steady-Glo, Promega, Madison, Wis.) as described by the manufacturer. Luciferase activity was then quantified by measuring luminescence using an EnVision Multilabel Plate Readers (PerkinElmer, Waltham, Mass.). • 6. The percent inhibition for each compound was calculated by quantifying the level of luciferase expression in cells infected in the presence of each compound as a percentage of that observed for cells infected in the absence of compound and subtracting such a determined value from 100. • 7. An EC50 provides a method for comparing the antiviral potency of the compounds of this disclosure. The effective concentration for fifty percent inhibition (EC50) was calculated with the Microsoft Excel Xlfit curve fitting software. For each compound, curves were generated from percent inhibition calculated at 10 different concentrations by using a four paramenter logistic model (model 205). Table 1 is the key for the data in Table 2.

[1] = read-out: EC50 Group from Table 1

SMILES | EC50 [1] | EC50
COCCOCC(=O)N1CCN(C(=O)C(=O)c2c[nH]c3c(-n4ccnn4)ncc(F)c23)CC1 [Compound 2047] | > 500 nM | –
COCC(=O)N1CCN(C(=O)C(=O)c2c[nH]c3c(-n4cnc(C)n4)ncc(OC)c23)CC1 [Compound 2048] | < 500 nM | –
COc1cnc(-n2cnc(C)n2)c2[nH]cc(C(=O)C(=O)N3CCN(C(=O)CN(C)C)CC3)c12 [Compound 2049] | > 500 nM | –
CCC(=O)N1CCN(C(=O)C(=O)c2c[nH]c3c(-n4cnc(C)n4)ncc(OC)c23)CC1 [Compound 2050] | < 500 nM | 10.4 nM
COCCOCC(=O)N1CCN(C(=O)C(=O)c2c[nH]c3c(-n4cnc(C)n4)ncc(OC)c23)CC1 [Compound 2051] | > 500 nM | –

From US8912195B2, “Alkyl amides as HIV attachment inhibitors” (priority 2010, dated 2014)
